Counter-ions that a name gives are not always drawn.
What was measured:
[1] = acute toxicity (LD50), mouse; type: in vivo; settings: in vivo, fumarate salt, expressed as free base, read-out: LD50 (95% Confidence Limits)
Description: (§1) The acute toxicities of the ±-racemate, the (+)-isomer and the (-)-isomer were conducted with the fumarate salts and probit analysis (Finney, D. J., Statistical Methods in Biological Assay, Hafner Pub. Co., N.Y., 2nd. Ed., 1964) was employed for the statistical treatment of the mortality data.

[2] = system: catalepsy; assay: cataleptic effects (Tedeschi et al.); type: in vivo, rat
From the text: (§2) The procedure used for determing cataleptic effects of the fumarate salts was based on that of Tedeschi et al., Arch. Int. Pharmacodyn.

[3] = cataleptic effects (Tedeschi et al.); type: in vivo, rat; settings: in vivo, rat, expressed as free base; for TD50: footnote c, read-out: Neurotoxic dose level evidenced by seizures in test animals; for NOAEL: fumarate salt
From the text: as §2

[4] = acute toxicity (LD50), rat; type: in vivo; settings: in vivo, fumarate salt, expressed as free base, read-out: LD50 (95% Confidence Limits)
Description: as §1

[5] = system: Chlorpromazine-Induced Catalepsy; assay: Effects on Chlorpromazine-Induced Catalepsy; type: in vivo, rat; settings: Chlorpromazine 4 mg/kg IP, then saline IP after one hour
Description: (§3) (+)-4-Amino-N-(1-cyclohexyl-3-pyrrolidinyl)-N-methylbenzamide is useful in reducing the cataleptic side effects of known therapeutically effective drugs such as chlorpromazine [2-chloro-10-(3-dimethylaminopropyl)phenothiazine] and metoclopramide (N-diethylaminoethyl 2-methoxy-4-amino-5-chlorophenylcarboxamide). The effectiveness is shown in Tables IV and V. In each test the rat was administered a 100% effective cataleptic dose of the test drug followed one hour later by an effective dose of (+)-4-amino-N-(1-cyclohexyl-3-pyrrolidinyl)-N-methylbenzamide.

[6] = system: Metoclopramide-Induced Catalepsy; assay: Effects on Metoclopramide-Induced Catalepsy; type: in vivo, rat; settings: Metoclopramide 40 mg/kg IP, then saline IP after one hour
Description: as §3

CN(C(=O)c1ccc(N)cc1)C1CCN(C2CCCCC2)C1 (racemic) [± racemate, 4-amino-N-(1-cyclohexyl-3-pyrrolidinyl)-N-methylbenzamide]
LD50 ([1]; ip, I.P.): 90.2 mg/kg | LD50 ([1]; po, P.O.): 181 mg/kg | cataleptic properties [2]: notable absence of cataleptic properties | TD50 ([3]; IP): 100 mg/kg | NOAEL ([3]; IP): 100 mg/kg | NOAEL ([3]; PO): 200 mg/kg | LD50 ([4]; ip, I.P.): 111 mg/kg | LD50 ([4]; po, P.O.): 305 mg/kg

CN(C(=O)c1ccc(N)cc1)C1CCN(C2CCCCC2)C1 (single isomer, unassigned; (-)) [(-)-isomer, (-)-4-Amino-N-(1-cyclohexyl-3-pyrrolidinyl)-N-methyl benzamide Fumarate]
LD50 ([1]; ip, I.P.): 103 mg/kg | LD50 ([1]; po, P.O.): 241 mg/kg | TD50 ([3]; IP): 100 mg/kg | LD50 ([4]; ip, I.P.): 116 mg/kg | LD50 ([4]; po, P.O.): 410 mg/kg

CN(C)CCCN1c2ccccc2Sc2ccc(Cl)cc21 [Chlorpromazine, 2-chloro-10-(3-dimethylaminopropyl)phenothiazine, reference compound]
Percent of Rats Cataleptic ([5]; 0.5 h after initial treatment): 100% | Percent of Rats Cataleptic ([5]; 1.0 h after initial treatment): 100% | Percent of Rats Cataleptic ([5]; 1.5 h after initial treatment): 100% | Percent of Rats Cataleptic ([5]; 2.0 h after initial treatment): 100% | Percent of Rats Cataleptic ([5]; 3.0 h after initial treatment): 100% | Percent of Rats Cataleptic ([5]; 4.0 h after initial treatment): 100% | Percent of Rats Cataleptic ([5]; 5.0 h after initial treatment): 100% | Percent of Rats Cataleptic ([5]; 6.0 h after initial treatment): 100%

CCN(CC)CCNC(=O)c1cc(Cl)c(N)cc1OC [Metoclopramide, N-diethylaminoethyl 2-methoxy-4-amino-5-chlorophenylcarboxamide, reference compound]
Percent of Rats Cataleptic ([6]; 0.5 h after initial treatment): 100% | Percent of Rats Cataleptic ([6]; 1.0 h after initial treatment): 100% | Percent of Rats Cataleptic ([6]; 1.5 h after initial treatment): 100% | Percent of Rats Cataleptic ([6]; 2.0 h after initial treatment): 100% | Percent of Rats Cataleptic ([6]; 3.0 h after initial treatment): 100% | Percent of Rats Cataleptic ([6]; 4.0 h after initial treatment): 100% | Percent of Rats Cataleptic ([6]; 5.0 h after initial treatment): 100% | Percent of Rats Cataleptic ([6]; 6.0 h after initial treatment): 100%
